Consider five compounds from patent publication EP0933350A1, “Tricyclic retinoids, methods for their production and use” (LIGAND PHARMACEUTICALS INCORPORATED, priority 1994, dated 1996).

A word on the Kd: it is the equilibrium constant for the complex coming apart. The term IC50 denotes the concentration that inhibits the measured activity by half.

The target in one test is T1, RXRα (Homo sapiens, UniProt P19793).
T1 sequence (P19793 1-462): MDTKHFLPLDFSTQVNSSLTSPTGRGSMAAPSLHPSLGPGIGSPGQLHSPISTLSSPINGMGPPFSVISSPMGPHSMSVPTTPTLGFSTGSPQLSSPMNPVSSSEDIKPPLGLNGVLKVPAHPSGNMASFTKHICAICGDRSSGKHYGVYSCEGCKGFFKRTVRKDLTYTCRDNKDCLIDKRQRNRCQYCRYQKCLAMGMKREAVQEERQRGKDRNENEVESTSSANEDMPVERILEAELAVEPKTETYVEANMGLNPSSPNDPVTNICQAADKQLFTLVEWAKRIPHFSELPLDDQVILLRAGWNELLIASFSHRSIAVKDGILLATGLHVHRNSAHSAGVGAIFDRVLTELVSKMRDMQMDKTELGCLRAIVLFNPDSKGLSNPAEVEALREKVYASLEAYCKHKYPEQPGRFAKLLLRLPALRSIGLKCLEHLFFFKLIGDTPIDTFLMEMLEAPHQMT
Briefly: competitive binding of tritiated retinoids to retinoid receptors. The settings on record: competition with tritiated retinoid, Cheng-Prussof equation.

Test [1] has as its target T2, RARβ (Homo sapiens, UniProt P10826).
T2 sequence (P10826 1-448 isoform P10826-2): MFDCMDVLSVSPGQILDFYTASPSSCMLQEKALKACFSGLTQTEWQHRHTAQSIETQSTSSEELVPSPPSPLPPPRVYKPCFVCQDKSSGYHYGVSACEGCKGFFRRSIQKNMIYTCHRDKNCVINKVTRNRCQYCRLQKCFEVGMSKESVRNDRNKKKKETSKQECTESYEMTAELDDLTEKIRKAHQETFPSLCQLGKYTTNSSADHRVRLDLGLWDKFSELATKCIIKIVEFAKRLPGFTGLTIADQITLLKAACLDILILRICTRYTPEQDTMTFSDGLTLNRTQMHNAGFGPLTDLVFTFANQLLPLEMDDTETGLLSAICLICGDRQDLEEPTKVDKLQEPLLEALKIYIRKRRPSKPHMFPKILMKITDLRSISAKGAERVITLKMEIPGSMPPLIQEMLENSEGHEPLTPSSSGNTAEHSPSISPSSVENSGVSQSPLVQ
Description: co-transfection assay (RAR/RXR agonist activity, luciferase reporter in CV-1 cells). The settings on record: potency = EC50, agonist, 40 hours, read-out: RARβ Pot. The class given is cell-based. In general terms: Reporter assays use an easily measured gene product as a stand-in for the process of interest.

In test [2] the target is T3, RARβ (Homo sapiens, UniProt P10826).
T3 sequence (P10826 1-455): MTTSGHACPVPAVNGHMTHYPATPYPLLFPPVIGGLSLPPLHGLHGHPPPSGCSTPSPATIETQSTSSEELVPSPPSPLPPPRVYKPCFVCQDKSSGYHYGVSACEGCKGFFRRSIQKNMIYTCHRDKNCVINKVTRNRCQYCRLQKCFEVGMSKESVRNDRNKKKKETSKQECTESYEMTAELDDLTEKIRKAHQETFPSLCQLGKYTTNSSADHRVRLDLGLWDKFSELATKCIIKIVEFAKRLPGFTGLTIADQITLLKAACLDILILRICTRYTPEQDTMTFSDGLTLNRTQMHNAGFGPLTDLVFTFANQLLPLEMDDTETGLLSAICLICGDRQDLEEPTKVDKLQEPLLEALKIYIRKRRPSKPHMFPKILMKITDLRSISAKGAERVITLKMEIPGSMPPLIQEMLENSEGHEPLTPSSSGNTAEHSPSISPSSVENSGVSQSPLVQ
Briefly: competitive binding of tritiated retinoids to retinoid receptors. The settings on record: competition with tritiated retinoid, Cheng-Prussof equation.

A further test has as its target T4, RARγ (Homo sapiens, UniProt P13631).
T4 sequence (P13631 1-454): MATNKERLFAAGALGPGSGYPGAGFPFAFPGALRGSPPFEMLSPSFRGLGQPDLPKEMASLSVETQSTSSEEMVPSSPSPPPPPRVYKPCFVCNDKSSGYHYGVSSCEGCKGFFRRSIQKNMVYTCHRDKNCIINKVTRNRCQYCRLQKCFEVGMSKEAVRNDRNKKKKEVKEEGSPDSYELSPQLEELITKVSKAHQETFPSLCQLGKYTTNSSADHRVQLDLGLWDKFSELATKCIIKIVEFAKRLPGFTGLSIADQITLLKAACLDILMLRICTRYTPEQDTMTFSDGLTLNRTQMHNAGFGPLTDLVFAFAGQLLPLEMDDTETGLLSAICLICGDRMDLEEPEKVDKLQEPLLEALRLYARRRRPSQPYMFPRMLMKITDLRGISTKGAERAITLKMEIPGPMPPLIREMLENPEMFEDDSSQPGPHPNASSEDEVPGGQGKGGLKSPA
Briefly: co-transfection assay (RAR/RXR agonist activity, luciferase reporter in CV-1 cells). In kind it is cell-based. The conditions noted are these: potency = EC50, agonist, 40 hours, read-out: RARγ Pot.

For the next test, the target named is T5, RXRβ (Mus musculus, UniProt P28704).
T5 sequence (P28704 1-520): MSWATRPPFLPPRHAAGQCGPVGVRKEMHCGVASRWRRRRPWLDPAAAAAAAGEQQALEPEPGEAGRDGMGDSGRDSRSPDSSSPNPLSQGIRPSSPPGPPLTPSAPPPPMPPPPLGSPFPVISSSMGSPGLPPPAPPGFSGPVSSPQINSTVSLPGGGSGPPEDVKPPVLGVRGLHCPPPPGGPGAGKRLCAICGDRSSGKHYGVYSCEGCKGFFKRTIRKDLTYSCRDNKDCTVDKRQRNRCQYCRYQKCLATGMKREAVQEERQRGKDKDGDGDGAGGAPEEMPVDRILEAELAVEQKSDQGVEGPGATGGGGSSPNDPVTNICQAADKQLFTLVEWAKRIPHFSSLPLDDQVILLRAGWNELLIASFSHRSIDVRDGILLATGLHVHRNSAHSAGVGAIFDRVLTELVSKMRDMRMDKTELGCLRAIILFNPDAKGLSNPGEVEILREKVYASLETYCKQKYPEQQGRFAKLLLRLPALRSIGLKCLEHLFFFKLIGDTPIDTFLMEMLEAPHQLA
The description is as above. In kind it is cell-based. The conditions noted are these: read-out: RXRβ Pot.

In another test the test system is AML-193 cell line. Description: incorporation of 3H-thymidine (antiproliferative). The conditions noted are these: Homo sapiens, 96 h, read-out: TdR IC50 (nM).

Turning to `CC(/C=C/C=C1/CCCc2cc3c(cc21)C(C)(C)CCC3(C)C)=C\C(=O)O` [Compound 101b, (2E,4E)-3-Methyl-6-[(Z)-3,4,5,6,7,8-hexahydro-5,5,8,8-tetramethyl-2H-anthracen-1-ylidene]hexa-2,4-dienoic acid], the values for the Kd at RXRα and at RARβ [2] were 34 nM and 299 nM, respectively. Also, the results for the EC50 on RARβ [1], on RARγ and on RXRβ were 8 nM, 7 nM and 55 nM, respectively. In addition, the IC50 with AML-193 cell line worked out at 37 nM.

Take `CC(/C=C/C=C1\CCCc2cc3c(cc21)C(C)(C)CCC3(C)C)=C\C(=O)O` [Compound 109b, (2E,4E)-3-Methyl-6-[(E)-3,4,5,6,7,8-hexahydro-5,5,8,8-tetramethyl-2H-anthracen-1-ylidene]hexa-2,4-dienoic acid]: the Kd at RXRα is 340 nM; at RARβ [2], 68 nM. For the same compound, the EC50 amounted to 3 nM at RARβ [1], 1 nM at RARγ and 64 nM on RXRβ. The IC50 in the test on AML-193 cell line stood at 500 nM.

Consider `CC(/C=C/C=C1\CCOc2cc3c(cc21)C(C)(C)CCC3(C)C)=C\C(=O)O` [Compound 119b, (2E,4E)-3-Methyl-6-[(E)-2,3,6,7,8,9-hexahydro-6,6,9,9-tetramethylbenzo[g]chromen-4-ylidene]hexa-2,4-dienoic acid], for which the values for the Kd at RXRα and on RARβ [2] were 246 nM and 50 nM, respectively. Also, the EC50 worked out at 1 nM on RARβ [1], 1 nM on RARγ and 1140 nM at RXRβ. Besides, the IC50 in the test with AML-193 cell line stood at 0.6 nM.

For `CC(/C=C/CN1CCCCc2cc3c(cc21)C(C)(C)CCC3(C)C)=C\C(=O)O` [Compound 138b, (2E,4E)-3-Methyl-6-[7,7,10,10-tetramethyl-2,3,4,5,7,8,9,10-octahydronaphtho[2,3-6]azepinyl)hexa-2,4-dienoic acid], the Kd at RXRα was 136 nM; on RARβ [2], above 1000 nM. The EC50 at RARβ [1] was above 10000 nM; on RARγ it was above 10000 nM; at RXRβ, 204 nM.

On to `CC(/C=C/C=C1/CCOc2cc3c(cc21)C(C)(C)CCC3(C)C)=C\C(=O)O` [Compound 144b], for which the Kd on RXRα turned out to be 59 nM; at RARβ [2], 313 nM. Also, the EC50 at RARβ [1] came out at 3 nM; on RARγ, 2 nM; on RXRβ, 45 nM. Also, in the test on AML-193 cell line, the IC50 is 0.6 nM.
